In US20110144323A1, “AMORPHOUS AND CRYSTALLINE FORMS OF SMILAGENIN AND ITS HYDRATES” (PHYTOPHARM PLC, priority 2004, published 2011):

Experiment: Vapour sorption studies
Type: physicochemical
Text: As is well known, a channel hydrate is a hydrate in which the crystal lattice of the molecule forms a channel or cage enclosing a void which can wholly or partially accommodate water (or solvent) molecules. The stoichiometric (molar) ratio of smilagenin:water at any particular time will depend on such factors as the humidity of the surrounding atmosphere, as the water molecules are generally free to enter or leave the void.

C[C@@H]1CC[C@@]2(OC1)O[C@H]1C[C@H]3[C@@H]4CC[C@@H]5C[C@@H](O)CC[C@]5(C)[C@H]4CC[C@]3(C)[C@H]1[C@@H]2C [Crystalline Form VI, smilagenin]
hygroscopicity in vapour sorption study (FIG. 11): hygroscopic
water adsorbed, molar equivalents (at high humidity, i.e. a dihydrate): about 2 mol. eq. water
water adsorbed in vapour sorption study (at high humidity, water reversibly lost at low humidity (FIG. 11)): up to 9 % water
